Substitutions are numbered along the chain they refer to.
Columns and labels:
[1] = molecular target: T1, wild-type human β-catenin (residues 138-686) (Homo sapiens, UniProt P35222); test: Isothermal titration calorimetry, wild-type β-catenin; format: binding; conditions: ITC, 28° C.
T1 construct: His6 (C); made in house; host or cells: E. coli BL21 DE3
T1 sequence (P35222 138-686): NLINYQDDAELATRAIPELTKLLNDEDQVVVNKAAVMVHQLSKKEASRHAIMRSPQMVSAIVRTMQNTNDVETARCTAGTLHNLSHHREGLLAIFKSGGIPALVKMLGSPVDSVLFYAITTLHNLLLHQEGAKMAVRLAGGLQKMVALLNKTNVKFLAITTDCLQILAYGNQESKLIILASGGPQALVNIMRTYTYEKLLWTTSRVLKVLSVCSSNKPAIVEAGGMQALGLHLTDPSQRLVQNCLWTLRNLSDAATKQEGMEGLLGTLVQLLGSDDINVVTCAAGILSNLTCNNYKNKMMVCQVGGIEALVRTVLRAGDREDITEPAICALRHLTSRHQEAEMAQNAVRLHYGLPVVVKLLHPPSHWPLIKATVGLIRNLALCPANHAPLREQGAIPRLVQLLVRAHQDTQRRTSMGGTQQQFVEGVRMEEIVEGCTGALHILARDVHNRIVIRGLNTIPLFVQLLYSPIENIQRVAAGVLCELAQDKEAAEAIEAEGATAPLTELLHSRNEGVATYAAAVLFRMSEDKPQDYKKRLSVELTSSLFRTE
Experimental: (§1) ITC measurements were performed at 28° C. using a VP-ITC (Microcal, GE Healthcare Life Sciences). […] The homogeneity of the purified proteins were examined by native gel electrophoresis. Each titration experiment was initiated by a 2 μL injection, and followed by 30-35 times injections with an 8 μL volume each. Blank titrations, which were carried out by injecting the compound into the buffer, were subtracted from each data set. The association constant KA, enthalpy change (ΔH), and stoichiometry N were obtained from fitting the data using the Origin software package. The dissociation constant Kd, the free energy change ΔG, and the entropy change ΔS were obtained from the basic thermodynamic equations, Kd=KA^−1, ΔG=−RTlnKA, and ΔG=ΔH−TΔS.

[2] = molecular target: T2, β-catenin L159S mutant (residues 138-686) (Homo sapiens, UniProt P35222, L159S); test: Isothermal titration calorimetry, β-catenin L159S; format: binding; conditions: ITC
T2 construct: His6 (C); made in house; host or cells: E. coli BL21 DE3
T2 sequence (P35222 138-686 L159S): T1 sequence (P35222 138-686) with L22S
Text: (§2) Mutants β-catenin D145A, E155A, L156S, L159S, D145A/E155A, L156S/L159S, and L156S/L178S were generated using the overlapping PCR method. Template for the mutagenesis reactions was wide type full-length β-catenin in pET-28b. KOD hot start DNA polymerase (Novagen) was used through this experiment. Mutants were confirmed by direct sequencing (Core facility, University of Utah). Following the confirmation of the sequence, mutant β-catenin were cloned into a pET-28b vector and transformed into E. coli BL21 DE3.
as §1

[3] = molecular target: T3, β-catenin L156S/L178S mutant (residues 138-686) (Homo sapiens, UniProt P35222, L156S/L178S); test: Isothermal titration calorimetry, β-catenin L156S/L178S; format: binding; conditions: ITC
T3 construct: His6 (C); made in house; host or cells: E. coli BL21 DE3
T3 sequence (P35222 138-686 L156S/L178S): T1 sequence (P35222 138-686) with L19S, L41S
Text: as §2, §1

[4] = test system: AXIN2, LGR5, LEF1, and cyclin D1 transcription in MDA-MB-231 cells; test: Quantitative real-time PCR, MDA-MB-231 cells; format: cell-based, human; conditions: 2 and 4 μM
Experimental: SW480 and MDA-MB-231 cells at 1×10^6/mL were treated with different concentrations of 21 for 24 h. Total RNAs were extracted with TRIzol ([…], Life Technologies), and the cDNA was synthesized with the superscript III first-strand kit (18080-051, Invitrogen). Quantitative PCR (qPCR) was performed using the iQ™ SYBR green supermix kit (170-8880, BIO-RAD) on an iQ^5 multicolor real-time PCR reaction system (BIO-RAD). The threshold cycle (CT) values were normalized to that of internal reference GAPDH. The primer pairs for human GAPDH were forward: 5′-[…]-3′, and reverse: 5′-[…]-3′, for human AXIN2 forward: 5′-[…]-3′ and reverse: 5′-[…]-3′, for human LGR5 forward: 5′-[…]-3′ and reverse: 5′-[…]-3′, for human LEF1 forward: 5′-[…]-3′ and reverse: 5′-[…] […]-3′, and for human cyclin D1 forward: 5′-[…]-3′, and revers: 5′-[…]-3′. Experiments were performed in triplicate.

SMILES: O=C(Nc1ccc(O[C@H]2CCNC2)c(-c2ccc(F)cc2)c1)c1ccc(O[C@H]2CCNC2)c(-c2ccc(F)c(F)c2)c1 [Compound 21, (S)-3-((3′,4′-difluoro-5-((4′-fluoro-6-((S)-pyrrolidin-1-ium-3-yloxy)-[1,1′-biphenyl]-3-yl)carbamoyl)-[1,1′-biphenyl]-2-yl)oxy) pyrrolidin-1-ium chloride]
- Kd [1]: 333 ± 6 nM
- Kd [2]: 924 ± 33 nM
- Kd [3]: 1590 ± 45 nM
- inhibition of mRNA expression [4]: More than 50%

— patent US20180092866A1, “SUBSTITUTED N-([1,1'-BIPHENYL]-3-YL)-[1,1'-BIPHENYL]-3-CARBOXAMIDE ANALOGS AS INHIBITORS FOR BETA-CATENIN/B-CELL LYMPHOMA 9 INTERACTIONS” (University of Utah Research Foundation, priority 2015, published 2018)
